Experimental data published in ChEMBL document CHEMBL1133342, “A convenient extension of the Wessely-Moser rearrangement for the synthesis of substituted alkylaminoflavones as neuroprotective agents in vitro” (Bioorg Med Chem Lett, 2000).

Key:
[1] = Compound was tested in vitro for neuroprotective activity against L-homocysteic acid cytotoxicity in murine HT-22 hippocampal cell cultures by MTT reduction assay; format: functional, Mus musculus, Hippocampus
[2] = Compound was tested in vitro for intrinsic neurotoxicity against murine HT-22 hippocampal cell cultures by LDH assay; design: species or system Hippocampus; settings: mouse, HT-22 hippocampal cells; read-out: TC50 (the source's name)
[3] = Maximum tolerated concentration in vitro against murine HT-22 hippocampal cell cultures by MTT reduction assay; format: functional, Mus musculus, Hippocampus
[4] = Maximum tolerated concentration in vitro against murine HT-22 hippocampal cell cultures by LDH assay; format: functional, Mus musculus, Hippocampus
[5] = Compound was tested in vitro for intrinsic neurotoxicity against murine HT-22 hippocampal cell cultures by MTT reduction assay; design: species or system Hippocampus; settings: mouse, HT-22 hippocampal cells; read-out: TC50 (the source's name)
[6] = Compound was tested in vitro for neuroprotective activity against L-homocysteic acid cytotoxicity in murine HT-22 hippocampal cell cultures by LDH assay; format: functional, Mus musculus, Hippocampus

CCCNc1c(O)cc(O)c2c(=O)cc(-c3ccccc3)oc12
PC50 [1]: 7 µM
CC50 [2]: 28 µM
MTC [3]: 5 µM
MTC [4]: 25 µM
CC50 [5]: 14 µM
PC50 [6]: 8 µM

CC(C)CNc1c(O)cc(O)c2c(=O)cc(-c3ccccc3)oc12
PC50 [1]: 4.6 µM
CC50 [2]: 12 µM
MTC [3]: 10 µM
MTC [4]: 10 µM
CC50 [5]: 12 µM
PC50 [6]: 4.2 µM

CC(C)Nc1c(O)cc2oc(-c3ccccc3)cc(=O)c2c1O
PC50 [1]: 5.1 µM
CC50 [2]: 152 µM
MTC [3]: 10 µM
MTC [4]: 100 µM
CC50 [5]: 18 µM
PC50 [6]: 6.6 µM

CC(C)CCNc1c(O)cc(O)c2c(=O)cc(-c3ccccc3)oc12
PC50 [1]: 5.3 µM
CC50 [2]: 16 µM
MTC [3]: 10 µM
MTC [4]: 10 µM
CC50 [5]: 12 µM
PC50 [6]: 5.5 µM

CCCNc1c(O)cc2oc(-c3ccccc3)cc(=O)c2c1O
PC50 [1]: 5.2 µM
CC50 [2]: 176 µM
MTC [3]: 5 µM
MTC [4]: 100 µM
CC50 [5]: 10 µM
PC50 [6]: 5.5 µM

CC(C)CCNc1c(O)cc2oc(-c3ccccc3)cc(=O)c2c1O
PC50 [1]: 5.2 µM
CC50 [2]: 116 µM
MTC [3]: 5 µM
MTC [4]: 100 µM
CC50 [5]: 16 µM
PC50 [6]: 5.2 µM

C=CCNc1c(O)cc(O)c2c(=O)cc(-c3ccccc3)oc12
PC50 [1]: >5 µM
CC50 [2]: 11 µM
MTC [3]: 5 µM
MTC [4]: 10 µM
CC50 [5]: 18 µM
PC50 [6]: >10 µM
